Tested on: T1, acetolactate synthase (ALS; AHAS), ALS1 and ALS2
T1 construct: native enzyme, partially purified by ammonium sulfate precipitation from young shoots (three- to four-leaf stage); mixture of ALS1 and ALS2
Test: in vitro ALS activity, colorimetric acetoin assay at […] nm
Assay type: biochemical, Alopecurus aequalis
Conditions: 37 °C, 60 min; pH 7.5 HEPES, MgCl2, thiamine pyrophosphate, FAD; extract buffer with 200 mM pyruvate mixed 1:1 with MM; mean of three susceptible populations; read-out: I50

COC(=O)c1ccc(CNS(C)(=O)=O)cc1S(=O)(=O)NC(=O)Nc1nc(OC)cc(OC)n1 [MM, mesosulfuron-methyl]
IC50: 35.5 nM

— article PMC7475246, “Unravelling the effect of two herbicide resistance mutations on acetolactate synthase kinetics and growth traits” (Journal of Experimental Botany, 2020)
